Measured values taken from article PMC10766964, “Copper-catalyzed synthesis of pyrazolo[1,5-a]pyrimidine based triazole-linked glycohybrids: mechanistic insights and bio-applications” (Scientific Reports, 2024).
Like-named read-outs stand apart in the source and are kept apart here.

What was measured:
[1] = system: MDA-MB-453 (HER2 positive breast cancer cells); assay: MTT cell viability assay in MDA-MB-453 cells; type: cell-based, human; settings: Homo sapiens; MDA-MB-453, positive control at 20 nM; read-out: Cell viability (%) ± SD
Procedure: MDA-MB-231 represents a specific subtype known as triple-negative breast cancer (TNBC). The investigation study was extended with active six hit compounds (9a, 9d, 9h, 10d, 10f, and 11g) in two other different cancer cell lines (MCF-7 and MDA-MB-453), each representing a separate class of breast cancers (MCF-7: hormone receptor/HR-positive; MDA-MB-453: human epidermal growth factor 2 receptor/HER2 positive). […] We also included normal mammary epithelial MCF-10A cells in our experiments to confirm if the growth-inhibitory activities of the selected compounds are truly cancer cell-specific. The activity data from MCF-7 and MDA-MB-453 cell lines (tested at 1 µM, 10 µM and 25 µM) and activity data from MCF-10A cell line (tested at 25 µM, 50 µM and 100 µM) are summarized in Table 3. To evaluate cell viability, the MTT assay was conducted following standard procedures. After 72 h of cell incubation with or without each compound, cell viability was assessed using MTT (3-(4,5-dimethylthiazol-2-yl)-2,5-diphenyltetrazolium bromide), which is a colorimetric method for determining the number of viable cells in various assays including proliferation, cytotoxicity, or chemosensitivity. The MTT reagent was added to the cells after removal of the medium and incubated for 3 h at 37 °C in the CO2 incubator. The formazan product, which is […] in the tissue culture medium, was dissolved in DMSO, and the absorbance of the formazan product was directly measured at 595 nm using a multimode plate reader without additional processing. The absorbance values are directly proportional to the number of viable cells in culture. The percentage of viable cells in each group was determined relative to the untreated control cells.

[2] = system: MDA-MB-231 (human breast cancer) cell line; assay: MTT cell viability assay in MDA-MB-231 cells; type: cell-based; settings: 72 h; for viability at 0.02 µM: positive control at 20 nM
Procedure: Thus, we screened the synthesized library of pyrazolo[1,5-a]pyrimidin-7-ols 4a–4i. Anticancer activity (in terms of growth inhibition/decreased cell viability with respect to control) of all synthesized compounds (n = 9) was investigated by MTT assay in MDA-MB-231 (human breast cancer) cell line at different concentrations for 72 h. […] Thus, it was aimed to investigate the anticancer activity of a synthesized library of triazole-linked glycohybrids of pyrazolo[1,5-a]pyrimidines. […] The MTT assay was used to investigate the anticancer activity of twenty-seven synthesized compounds on the growth inhibition and decrement in cell viability of MDA-MB-231 (human breast cancer). Different concentrations were tested for 72 h, and the results were compared to a control. MDA-MB-231, a human breast cancer cell line, was cultured under standard conditions. Specifically, they were grown in Dulbecco’s Modified Eagle’s Medium (DMEM) supplemented with 10% heat-inactivated Fetal Bovine Serum (FBS) and 1% penicillin–streptomycin. The cells were maintained as a monolayer in a 100 mm culture plate and were used for experiments before reaching their 8th passage. Subculturing was performed every third-day using trypsin EDTA treatment. All incubation and maintenance procedures were carried out in a humidified CO2 incubator at 37 °C. To evaluate cell viability, the MTT assay was conducted following standard procedures. After 72 h of cell incubation with or without each compound, cell viability was assessed using MTT (3-(4,5-dimethylthiazol-2-yl)-2,5-diphenyltetrazolium bromide), which is a colorimetric method for determining the number of viable cells in various assays including proliferation, cytotoxicity, or chemosensitivity. The MTT reagent was added to the cells after removal of the medium and incubated for 3 h at 37 °C in the CO2 incubator. The formazan product, which is […] in the tissue culture medium, was dissolved in DMSO, and the absorbance of the formazan product was directly measured at 595 nm using a multimode plate reader without additional processing. The absorbance values are directly proportional to the number of viable cells in culture. The percentage of viable cells in each group was determined relative to the untreated control cells.

[3] = system: MCF-7 (hormone receptor/HR-positive breast cancer cells); assay: MTT cell viability assay in MCF-7 cells; type: cell-based; settings: Homo sapiens, MCF7; MCF-7, positive control at 20 nM; read-out: Cell viability (%) ± SD
Procedure: MDA-MB-231 represents a specific subtype known as triple-negative breast cancer (TNBC). The investigation study was extended with active six hit compounds (9a, 9d, 9h, 10d, 10f, and 11g) in two other different cancer cell lines (MCF-7 and MDA-MB-453), each representing a separate class of breast cancers (MCF-7: hormone receptor/HR-positive; MDA-MB-453: human epidermal growth factor 2 receptor/HER2 positive).
We also included normal mammary epithelial MCF-10A cells in our experiments to confirm if the growth-inhibitory activities of the selected compounds are truly cancer cell-specific. The activity data from MCF-7 and MDA-MB-453 cell lines (tested at 1 µM, 10 µM and 25 µM) and activity data from MCF-10A cell line (tested at 25 µM, 50 µM and 100 µM) are summarized in Table 3.
To evaluate cell viability, the MTT assay was conducted following standard procedures. After 72 h of cell incubation with or without each compound, cell viability was assessed using MTT (3-(4,5-dimethylthiazol-2-yl)-2,5-diphenyltetrazolium bromide), which is a colorimetric method for determining the number of viable cells in various assays including proliferation, cytotoxicity, or chemosensitivity. The MTT reagent was added to the cells after removal of the medium and incubated for 3 h at 37 °C in the CO2 incubator. The formazan product, which is […] in the tissue culture medium, was dissolved in DMSO, and the absorbance of the formazan product was directly measured at 595 nm using a multimode plate reader without additional processing. The absorbance values are directly proportional to the number of viable cells in culture. The percentage of viable cells in each group was determined relative to the untreated control cells.

[4] = MTT cell viability assay in normal MCF-10A cells; type: cell-based; settings: human, MCF-10A normal mammary epithelial cells; MCF-10A normal cells, positive control at 20 nM; read-out: Cell viability (%) ± SD
Procedure: We also included normal mammary epithelial MCF-10A cells in our experiments to confirm if the growth-inhibitory activities of the selected compounds are truly cancer cell-specific. The activity data from MCF-7 and MDA-MB-453 cell lines (tested at 1 µM, 10 µM and 25 µM) and activity data from MCF-10A cell line (tested at 25 µM, 50 µM and 100 µM) are summarized in Table 3. To evaluate cell viability, the MTT assay was conducted following standard procedures. After 72 h of cell incubation with or without each compound, cell viability was assessed using MTT (3-(4,5-dimethylthiazol-2-yl)-2,5-diphenyltetrazolium bromide), which is a colorimetric method for determining the number of viable cells in various assays including proliferation, cytotoxicity, or chemosensitivity. The MTT reagent was added to the cells after removal of the medium and incubated for 3 h at 37 °C in the CO2 incubator. The formazan product, which is […] in the tissue culture medium, was dissolved in DMSO, and the absorbance of the formazan product was directly measured at 595 nm using a multimode plate reader without additional processing. The absorbance values are directly proportional to the number of viable cells in culture. The percentage of viable cells in each group was determined relative to the untreated control cells.

[5] = Table 1, MDA-MB-231, MTT, read-out: Cell Viability (%) ± SD
[6] = Table 2, MDA-MB-231, MTT, read-out: Cell viability (%) ± SD

| Structure (SMILES) | viability at 10 µM [2, 5] [%] | viability at 25 µM [2, 5] [%] | viability at 50 µM [2, 5] [%] | viability at 10 µM [2, 6] [%] | viability at 25 µM [2, 6] [%] | viability at 50 µM [2, 6] [%] | other results |
| --- | --- | --- | --- | --- | --- | --- | --- |
| COCCn1c2c([n+](Cc3cnccn3)c1C)C(=O)c1ccccc1C2=O [YM155, reference compound] | – | – | – | – | – | – | viability at 0.02 µM [1]: 35.2 ± 1.5%; viability at 0.02 µM [2, 5]: 20.4 ± 5.13%; viability at 0.02 µM [2, 6]: 26.4 ± 3.93%; viability at 0.02 µM [3]: 32.2 ± 1.7%; viability at 72 h, 0.02 µM [4]: 38.2 ± 1.6% |
| CC(C)c1ccc(-c2cc(O)n3nccc3n2)cc1 [Compound 4g, 5-(4-isopropylphenyl)pyrazolo[1,5-a]pyrimidin-7-ol] | 101 ± 5.51 | 98.1 ± 2.51 | 70.5 ± 5.69 | – | – | – | – |
| CC(=O)OC[C@H]1O[C@H](n2cc(COc3cc(-c4ccc(Br)cc4)nc4ccnn34)nn2)[C@@H](OC(C)=O)[C@@H](OC(C)=O)[C@@H]1OC(C)=O [Compound 11c, (2R,3R,4S,5S,6S)-2-(acetoxymethyl)-6-(4-(((5-(4-bromophenyl)pyrazolo[1,5-a]pyrimidin-7-yl)oxy)methyl)-1H-1,2,3-triazol-1-yl)tetrahydro-2H-pyran-3,4,5-triyl triacetate] | – | – | – | 81.3 ± 7.65 | 76.5 ± 6.58 | 72.5 ± 8.45 | – |
| CC(=O)OC[C@H]1O[C@@H](n2cc(COc3cc(-c4ccc(C)cc4)nc4ccnn34)nn2)[C@H](OC(C)=O)[C@@H](OC(C)=O)[C@H]1OC(C)=O [Compound 10a, (2R,3S,4S,5R,6R)-2-(acetoxymethyl)-6-(4-(((5-(p-tolyl)pyrazolo[1,5-a]pyrimidin-7-yl)oxy)methyl)-1H-1,2,3-triazol-1-yl)tetrahydro-2H-pyran-3,4,5-triyl triacetate] | – | – | – | 81.7 ± 8.36 | 78.5 ± 6.73 | 68.8 ± 10.4 | – |
| Oc1cc(-c2ccc(C(F)(F)F)cc2)nc2ccnn12 [Compound 4f] | 92.2 ± 8.51 | 88.8 ± 8.75 | 72.8 ± 7.02 | – | – | – | – |
| COc1ccc(-c2cc(OCc3cn([C@@H]4O[C@H](COC(C)=O)[C@H](OC(C)=O)[C@H](OC(C)=O)[C@H]4OC(C)=O)nn3)n3nccc3n2)cc1 [Compound 10b, (2R,3S,4S,5R,6R)-2-(acetoxymethyl)-6-(4-(((5-(4-methoxyphenyl)pyrazolo[1,5-a]pyrimidin-7-yl)oxy)methyl)-1H-1,2,3-triazol-1-yl)tetrahydro-2H-pyran-3,4,5-triyl triacetate] | – | – | – | 92.5 ± 9.39 | 85.2 ± 8.63 | 70.5 ± 6.24 | – |
| CC(=O)OC[C@H]1O[C@H](n2cc(COc3cc(-c4ccc5ccccc5c4)nc4ccnn34)nn2)[C@@H](OC(C)=O)[C@@H](OC(C)=O)[C@@H]1OC(C)=O [Compound 11h, (2R,3R,4S,5S,6S)-2-(acetoxymethyl)-6-(4-(((5-(naphthalen-2-yl)pyrazolo[1,5-a]pyrimidin-7-yl)oxy)methyl)-1H-1,2,3-triazol-1-yl)tetrahydro-2H-pyran-3,4,5-triyl triacetate] | – | – | – | 101 ± 9.28 | 89.8 ± 2.22 | 82.5 ± 5.45 | – |
| CC(=O)OC[C@H]1O[C@H](n2cc(COc3cc(-c4ccc(F)cc4)nc4ccnn34)nn2)[C@@H](OC(C)=O)[C@@H](OC(C)=O)[C@@H]1OC(C)=O [Compound 11e, (2R,3R,4S,5S,6S)-2-(acetoxymethyl)-6-(4-(((5-(4-fluorophenyl)pyrazolo[1,5-a]pyrimidin-7-yl)oxy)methyl)-1H-1,2,3-triazol-1-yl)tetrahydro-2H-pyran-3,4,5-triyl triacetate] | – | – | – | 98.4 ± 3.62 | 90.1 ± 6.77 | 88.6 ± 6.27 | – |
| COc1ccc(-c2cc(OCc3cn([C@H]4O[C@H](COC(C)=O)[C@@H](OC(C)=O)[C@H](OC(C)=O)[C@@H]4OC(C)=O)nn3)n3nccc3n2)cc1 [Compound 11b, (2R,3R,4S,5S,6S)-2-(acetoxymethyl)-6-(4-(((5-(4-methoxyphenyl)pyrazolo[1,5-a]pyrimidin-7-yl)oxy)methyl)-1H-1,2,3-triazol-1-yl)tetrahydro-2H-pyran-3,4,5-triyl triacetate] | – | – | – | 99.5 ± 10.2 | 95.2 ± 10.6 | 70.4 ± 10.5 | – |
| COc1ccc(-c2cc(O)n3nccc3n2)cc1 [Compound 4b] | 85.1 ± 8.53 | 80.1 ± 3.51 | 70.5 ± 5.69 | – | – | – | – |
| CC(=O)OC[C@H]1O[C@@H](n2cc(COc3cc(-c4ccc(F)cc4)nc4ccnn34)nn2)[C@H](OC(C)=O)[C@@H](OC(C)=O)[C@@H]1OC(C)=O [Compound 9e, (2R,3R,4S,5R,6R)-2-(acetoxymethyl)-6-(4-(((5-(4-fluorophenyl)pyrazolo[1,5-a]pyrimidin-7-yl)oxy)methyl)-1H-1,2,3-triazol-1-yl)tetrahydro-2H-pyran-3,4,5-triyl triacetate] | – | – | – | 98.6 ± 2.25 | 92.2 ± 1.96 | 81.2 ± 9.22 | – |
| Oc1cc(-c2ccc3c(c2)OCO3)nc2ccnn12 [Compound 4i] | 96.6 ± 3.36 | 89.1 ± 3.51 | 73.5 ± 6.69 | – | – | – | – |
| Oc1cc(-c2ccc(Br)cc2)nc2ccnn12 [Compound 4c] | 100 ± 4.01 | 99.1 ± 3.93 | 96.5 ± 2.89 | – | – | – | – |
